Measured values taken from patent US11214803B2, “Modulators of YAP1 expression” (Ionis Pharmaceuticals, Inc., priority 2019, dated 2022).
Strand notation (5' to 3'): a small letter for the sugar, then the base; units joined by * are phosphorothioate-linked, units joined directly phosphodiester-linked; [ ] holds rarer units or linkages, { } end groups; capitals alone tell only the bases. k = constrained ethyl (cEt); [5mC] = 5-methylcytosine; d = 2'-deoxy (DNA)

Tested on: Yap1 mRNA
Assay: Antisense inhibition of human Yap1 in A-431 cells by cEt gapmers, single dose (Example 2, RTS4814)
Format: cell-based
Procedure, shortened: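 Yap1 mRNA levels, by real-time RT-PCR (RTS4814) and corrected for total RNA via RIBOGREEN, are given as percent of untreated cells. Gapmers (16-mer, cEt wings, phosphorothioate, 5-methylC) were delivered without transfection at 2,000 nM to A-431 cells for about 48 hours.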

[1] = A-431 cells, 5,000 cells per well, free uptake, 2,000 nM modified oligonucleotide, approx. 48 hours, RTS4814, normalized to RIBOGREEN, Table 4, asterisk (*) = targets amplicon region of primer probe set
[2] = Table 22, Yap1 mRNA as percent of untreated control, 3-10-3 cEt gapmers, single dose
[3] = Yap1 mRNA as percent of untreated control, A-431 cells, 3-10-3 cEt gapmers targeting SEQ ID NO.: 1, and 2, Table 30
[4] = Table 24, Yap1 mRNA as percent of untreated control, 3-10-3 cEt gapmers targeting SEQ ID NO.: 1, and 2
[5] = Table 20, Yap1 mRNA, percent of untreated control, 3-10-3 cEt gapmers targeting SEQ ID NO.: 1 and 2
[6] = Table 5, A-431 cells, 5,000 cells per well, free uptake, 2,000 nM modified oligonucleotide, approx. 48 hours, RTS4814, normalized to RIBOGREEN, Yap1 mRNA relative to untreated control cells
[7] = Table 25, Yap1 mRNA as percent of untreated control, 3-10-3 cEt gapmers targeting SEQ ID NO.: 1, and 2
[8] = Table 18, A-431 cells, 5,000 cells per well, free uptake, 2,000 nM modified oligonucleotide, approx. 48 hours, RTS4814, normalized to RIBOGREEN, Yap1 mRNA as percent of untreated control
[9] = Table 21, Yap1 mRNA, percent of untreated control, 3-10-3 cEt gapmers targeting SEQ ID NO.: 1 and 2
[10] = Yap1 mRNA as percent of untreated control, A-431 cells, 3-10-3 cEt gapmers targeting SEQ ID NO.: 1, and 2, Table 31
[11] = Table 33, Yap1 mRNA, percent of untreated control, 3-10-3 cEt gapmers targeting SEQ ID NO.: 1, and 2
[12] = Table 19, A-431 cells, 5,000 cells per well, free uptake, 2,000 nM modified oligonucleotide, approx. 48 hours, RTS4814, normalized to RIBOGREEN, Yap1 mRNA as percent of untreated control
[13] = Table 23, Yap1 mRNA as percent of untreated control, 3-10-3 cEt gapmers, single dose

716457 (kA*kA*kA*dG*dG*dA*dT*dA*d[5mC]*dA*dT*dT*d[5mC]*k[5mC]*kA*k[5mC]; antisense) [Compound 716457]
YAP1 (% UTC) [1]: 61 % UTC

1076232 (kG*kT*kA*dA*dT*dA*d[5mC]*dA*d[5mC]*d[5mC]*dA*dT*dT*kT*kG*kG; antisense) [Compound 1076232]
YAP1 (% UTC) [2]: 15 % UTC

1075952 (antisense k[5mC]*kT*kA*dT*dA*dT*dA*d[5mC]*d[5mC]*dT*dG*d[5mC]*dT*kT*k[5mC]*kT) [compound 1075952]
YAP1 (% UTC) [3]: 41 % UTC

1074922 (antisense k[5mC]*kT*kT*dT*d[5mC]*d[5mC]*dA*d[5mC]*dT*d[5mC]*dA*dA*dG*kT*kT*kA) [Compound 1074922]
YAP1 (% UTC) [4]: 87 % UTC

1074918 (antisense kT*k[5mC]*kA*dA*dG*dT*dT*dA*d[5mC]*dA*dT*d[5mC]*d[5mC]*k[5mC]*kG*kA) [Compound 1074918]
YAP1 (% UTC) [5]: 60 % UTC

716352 (k[5mC]*kT*kG*d[5mC]*dG*d[5mC]*d[5mC]*d[5mC]*d[5mC]*dG*dG*d[5mC]*dT*k[5mC]*k[5mC]*kA; antisense) [Compound 716352]
YAP1 (% UTC) [1]: 105 % UTC

1074378 (antisense kG*kA*kA*dA*d[5mC]*dG*dG*dT*dT*d[5mC]*dT*dG*d[5mC]*kT*kG*kT) [Compound 1074378]
YAP1 (% UTC) [4]: 31 % UTC

716374 (kG*kG*kT*d[5mC]*dA*dG*dT*dG*dT*d[5mC]*d[5mC]*d[5mC]*dA*kG*kG*kA; antisense) [Compound 716374]
YAP1 (% UTC) [6]: 54 % UTC

1075595 (kT*kA*kT*dA*dA*dT*dA*d[5mC]*dA*dT*d[5mC]*dT*d[5mC]*k[5mC]*k[5mC]*k[5mC]; antisense) [Compound 1075595]
YAP1 (% UTC) [7]: 50 % UTC

716386 (kA*kT*kT*dT*d[5mC]*dT*d[5mC]*d[5mC]*dA*dT*d[5mC]*d[5mC]*dT*kG*kA*kG; antisense) [Compound 716386]
YAP1 (% UTC) [6]: 60 % UTC

1075818 (k[5mC]*kA*kT*dA*dA*d[5mC]*dT*dT*dA*dG*dA*dA*d[5mC]*k[5mC]*kA*kT; antisense) [Compound 1075818]
YAP1 (% UTC) [4]: 35 % UTC

716431 (kA*kA*kT*dG*dA*dT*dT*dG*dG*dT*dG*dA*dA*k[5mC]*kA*kT; antisense) [Compound 716431]
YAP1 (% UTC) [6]: 55 % UTC

1074674 (antisense kT*kA*kT*dA*dG*dG*d[5mC]*dA*d[5mC]*dT*d[5mC]*d[5mC]*dT*kT*k[5mC]*k[5mC]) [compound 1074674]
YAP1 (% UTC) (Table 32, Yap1 mRNA, percent of untreated control, 3-10-3 cEt gapmers targeting SEQ ID NO.: 1, and 2): 22 % UTC

1074724 (antisense kG*kG*kG*dT*dA*dA*dA*dG*dG*dA*dA*dG*dA*kT*k[5mC]*kT) [Compound 1074724]
YAP1 (% UTC) [8]: 22 % UTC

1074340 (antisense kT*k[5mC]*k[5mC]*d[5mC]*dG*dG*dG*dA*dG*dA*dA*dG*dA*k[5mC]*kA*k[5mC]) [Compound 1074340]
YAP1 (% UTC) [8]: 120 % UTC

1076167 (kA*kA*kA*dT*dT*dT*dA*d[5mC]*dA*d[5mC]*d[5mC]*dA*d[5mC]*k[5mC]*kG*k[5mC]; antisense) [Compound 1076167]
YAP1 (% UTC) [9]: 33 % UTC

1075537 (k[5mC]*kT*kT*dT*dA*dA*dT*dT*dA*d[5mC]*d[5mC]*d[5mC]*dA*kA*kG*kG; antisense) [compound 1075537]
YAP1 (% UTC) [10]: 82 % UTC

1076435 (k[5mC]*kG*kT*dA*dA*dA*d[5mC]*dA*dT*d[5mC]*dA*dT*d[5mC]*kT*k[5mC]*kT; antisense) [compound 1076435]
YAP1 (% UTC) [11]: 12 % UTC

1075217 (kT*kT*kA*dT*dT*dT*dT*dA*d[5mC]*dA*d[5mC]*dG*dA*kA*k[5mC]*kT; antisense) [compound 1075217]
YAP1 (% UTC) [10]: 71 % UTC

716526 (antisense kT*k[5mC]*kA*dA*dA*dG*d[5mC]*dA*d[5mC]*dT*dG*dT*dG*k[5mC]*k[5mC]*kA) [Compound 716526]
YAP1 (% UTC) [1]: 88 % UTC

1075847 (k[5mC]*kT*kT*dT*dA*dT*dA*dG*d[5mC]*dA*dG*dA*dT*kG*k[5mC]*k[5mC]; antisense) [Compound 1075847]
YAP1 (% UTC) [9]: 14 % UTC

1076304 (kA*k[5mC]*kT*dA*dA*dT*dA*dA*dG*d[5mC]*d[5mC]*dT*d[5mC]*kA*k[5mC]*k[5mC]; antisense) [compound 1076304]
YAP1 (% UTC) [3]: 30 % UTC

1076420 (k[5mC]*k[5mC]*kA*dT*dA*dT*dA*dA*dT*dA*dA*d[5mC]*d[5mC]*k[5mC]*kA*kT; antisense) [Compound 1076420]
YAP1 (% UTC) [8]: 26 % UTC

1074705 (antisense kG*k[5mC]*kA*d[5mC]*dG*dG*dT*dG*dT*dA*dA*dG*dA*k[5mC]*kA*kA) [compound 1074705]
YAP1 (% UTC) [10]: 20 % UTC

1074789 (kA*kT*k[5mC]*dA*dA*d[5mC]*d[5mC]*dA*dT*dA*dA*dG*dT*kA*kG*kA; antisense) [Compound 1074789]
YAP1 (% UTC) [12]: 17 % UTC

1074377 (antisense kA*kA*kA*d[5mC]*dG*dG*dT*dT*d[5mC]*dT*dG*d[5mC]*dT*kG*kT*kG) [Compound 1074377]
YAP1 (% UTC) [13]: 52 % UTC

1076551 (antisense kG*kT*kG*dG*dA*dA*dT*dA*dG*d[5mC]*dA*dG*d[5mC]*k[5mC]*kA*kT) [Compound 1076551]
YAP1 (% UTC) [9]: 67 % UTC

1074277 (antisense kG*kT*k[5mC]*dT*dA*dG*d[5mC]*d[5mC]*dA*dA*dG*dA*dG*kG*kT*kG) [Compound 1074277]
YAP1 (% UTC) [12]: 18 % UTC

1076102 (k[5mC]*kT*kT*dA*dA*d[5mC]*dA*dA*dA*dT*d[5mC]*dA*dG*k[5mC]*k[5mC]*k[5mC]; antisense) [Compound 1076102]
YAP1 (% UTC) [5]: 32 % UTC

716493 (kA*k[5mC]*kA*dT*dT*dG*dA*dA*dA*dG*dA*d[5mC]*d[5mC]*k[5mC]*kT*kT; antisense) [Compound 716493]
YAP1 (% UTC) [1]: 30 % UTC

716554 (kA*kT*kG*d[5mC]*dT*dT*dG*d[5mC]*dG*dA*dG*dG*dA*kT*kA*kA; antisense) [Compound 716554]
YAP1 (% UTC) [6]: 30 % UTC

1075411 (antisense k[5mC]*kA*kA*dA*dA*dA*dG*dG*dG*dT*dA*dA*dG*kG*k[5mC]*kA) [compound 1075411]
YAP1 (% UTC) [11]: 39 % UTC

716520 (antisense kA*kG*kT*d[5mC]*dT*dT*dT*dA*dT*dT*dA*dA*dA*kG*kA*kG) [Compound 716520]
YAP1 (% UTC) [1]: 96 % UTC

1074538 (antisense kA*kT*k[5mC]*d[5mC]*dA*d[5mC]*dA*dG*dT*dA*dA*dT*dA*kG*k[5mC]*kT) [Compound 1074538]
YAP1 (% UTC) [4]: 31 % UTC

1074771 (kA*kA*kT*d[5mC]*dT*dT*dA*dT*d[5mC]*d[5mC]*d[5mC]*dA*dA*kT*kG*k[5mC]; antisense) [compound 1074771]
YAP1 (% UTC) [11]: 18 % UTC

1074565 (antisense kA*k[5mC]*kT*dG*dA*dA*dT*dT*d[5mC]*d[5mC]*dA*dA*dT*k[5mC]*kG*kA) [Compound 1074565]
YAP1 (% UTC) [12]: 5 % UTC

1076488 (antisense kG*k[5mC]*k[5mC]*dA*dA*dT*dA*dA*dG*dA*dT*dA*dA*kG*kA*kA) [Compound 1076488]
YAP1 (% UTC) [2]: 19 % UTC

1074853 (antisense k[5mC]*kA*kA*dT*dT*dG*dT*dT*dA*dT*dG*dA*dT*kA*kG*kG) [Compound 1074853]
YAP1 (% UTC) [12]: 15 % UTC

1075819 (kG*kT*kA*dT*dA*dT*d[5mC]*d[5mC]*dG*dT*dT*d[5mC]*dT*k[5mC]*kA*kT; antisense) [Compound 1075819]
YAP1 (% UTC) [7]: 2 % UTC

1074981 (antisense kT*kT*kA*dT*dT*dG*d[5mC]*d[5mC]*dA*dG*dT*dT*d[5mC]*kT*kT*kG) [Compound 1074981]
YAP1 (% UTC) [12]: 9 % UTC

1075720 (k[5mC]*kT*kT*dT*dA*d[5mC]*dT*dA*d[5mC]*dA*dT*dA*dT*kA*kG*k[5mC]; antisense) [Compound 1075720]
YAP1 (% UTC) [2]: 47 % UTC

1075753 (k[5mC]*kT*kA*dG*dA*dA*d[5mC]*d[5mC]*dT*dT*dT*dT*d[5mC]*k[5mC]*kA*kG; antisense) [Compound 1075753]
YAP1 (% UTC) [13]: 65 % UTC

716401 (kA*kA*k[5mC]*dT*dG*dG*d[5mC]*dT*dA*d[5mC]*dG*d[5mC]*dA*kG*kG*kG; antisense) [Compound 716401]
YAP1 (% UTC) [6]: 92 % UTC

1076368 (antisense k[5mC]*kA*kT*dT*dT*dT*dA*dT*dG*dT*dA*dA*dG*kG*k[5mC]*k[5mC]) [compound 1076368]
YAP1 (% UTC) [3]: 15 % UTC

716451 (k[5mC]*k[5mC]*k[5mC]*dA*dA*dG*d[5mC]*dT*dA*d[5mC]*dA*dA*d[5mC]*kT*kA*kT; antisense) [Compound 716451]
YAP1 (% UTC) [1]: 67 % UTC
